This is an account of results in article PMC12751025, “α‑Aminoboronic Acid Moieties in Boro Dipeptides Modulate Proteasome Subunit Selectivity and Provide Access to Compounds with Potent Anticancer and Anti-Inflammatory Activity” (Journal of Medicinal Chemistry, 2025).

One series concerns the target β1i subunit of human iCP (Homo sapiens, UniProt P28065+P40306). Description: IC50 determination with subunit-specific fluorogenic substrate Ac-PAL-AMC. The following applies: for IC50: IC50 β1i.
A further series deals with T1, β2c subunit of human cCP (Homo sapiens, UniProt P49720+Q99436).
T1 construct: purchased Boston Biochem, Inc
Description: IC50 determination with fluorogenic substrate Ac-RLR-AMC (PA28β added). It is filed as biochemical.

Another series concerns β1i. To be noted: in parentheses in Table S2; SI reference list; read-out: IC50 β1i, previously published data; cited from earlier work.
A short description of a further series: Cytotoxicity MTS assay. Format: cell-based. The following applies: human, MM.1S multiple myeloma cells, 250 nM, 72 h (Figure S3), read-out: viable cells. A general note: Tetrazolium dyes change colour on reduction, which living cells bring about.
The test system of another series is β1c. The following applies: in parentheses in Table S2; SI reference list; read-out: IC50 β1c, previously published data; cited from earlier work.
For another series, the system named is β5c. The following applies: in parentheses in Table S2; SI reference list; read-out: IC50 β5c, previously published data; cited from earlier work.
A further series addresses T2, β5c subunit of human cCP (Homo sapiens, UniProt P20618+P28074).
T2 construct: purchased Boston Biochem, Inc
Description: IC50 determination with fluorogenic substrate Ac-WLA-AMC. Format: biochemical.

Another series deals with β2c. To be noted: in parentheses in Table S2; SI reference list; read-out: IC50 β2c, previously published data; cited from earlier work.
Another series addresses T3, β1c subunit of human cCP (Homo sapiens, UniProt P28072+Q99436).
T3 construct: purchased Boston Biochem, Inc
As to the kind of experiment: IC50 determination with subunit-specific fluorogenic substrate Ac-nLPnLD-AMC. Format: biochemical.

The target in the next series is β5i subunit of human iCP (Homo sapiens, UniProt P20618+P28062). As to the kind of experiment: IC50 determination with fluorogenic substrate Ac-ANW-AMC. The following applies: for IC50: IC50 β5i.
The next series deals with MM.1S. Also noted: method as in previous findings. The following applies: reference number not given; ref previous findings; read-out: IC50 for the reduction of MM.1S viability; cited from earlier work.
The subject of a further series is β5i. The following applies: in parentheses in Table S2; SI reference list; read-out: IC50 β5i, previously published data; cited from earlier work.
The target in a further series is β2i subunit of human iCP (Homo sapiens, UniProt P40306+P49720). As to the kind of experiment: IC50 determination with fluorogenic substrate Ac-RLR-AMC (PA28β added).
For a further series, the system named is β2i. The following applies: in parentheses in Table S2; SI reference list; read-out: IC50 β2i, previously published data; cited from earlier work.
A short description of series [1]: Solubility remark (exclusion from cell-based assays). Format: physicochemical. To be noted: reason for not using in cell-based assays.
In series [2] the test system is all subunits of the human cCP and iCP. As to the kind of experiment: Subunit inhibition profile and preference across cCP and iCP subunits. It is filed as biochemical.
Description: (§1) The final assay mixtures contained 0.4 nM human iCP or cCP in assay buffer (50 mM Tris-HCl, 0.5 mM EDTA, pH 7.4, addition of PA28β for β2c and β2i subunits). […] After incubation at 37 °C for 30 min, the reaction was initiated by the addition of the substrate Ac-nLPnLD-AMC for β1c, Ac-PAL-AMC for β1i, Ac-RLR-AMC for β2c and β2i, Ac-WLA-AMC for β5c, and Ac-ANW-AMC for β5i. Fluorescence was monitored at 460 nm (excitation at 360 nm) for 60 min at 37 °C. The reaction progress was recorded and the initial linear phases were used to determine the velocity. The IC50 values were calculated using GraphPad Prism software (GraphPad Software, San Diego, CA, USA), and the results represent the mean values of at least three independent determinations.
[3] abbreviates: human iCP, mean of at least three experiments, NA: not active at 50 μM.
Where [4] appears, read: human cCP, mean of at least three experiments, NA: not active at 50 μM.

Molecules are shown by their SMILES.

Description for Cytotoxicity MTS assay: Cytotoxicity was determined using the MTS cell proliferation assay (CellTiter 96 AQueous One Solution Cell Proliferation Assay, Promega, Wisconsin, USA), which measures mitochondrial metabolic activity as a surrogate for cell viability. The assay was performed according to the manufacturer protocol. […] The cells were seeded in 96-well plates (15.000–30.000 cells/well). After 24 h incubation at 5% CO2 and 37 °C, the cells were treated either with DMSO (negative control) or solutions of the tested compounds in DMSO. After 24 or 72 h, MTS reagent was added. Cells were incubated for additional 2 h - 4 h, followed by the measurement of absorbance at 490 nm on the Tecan Spark microplate reader.
Description for β1c subunit of human cCP: (§2) The measurements of the residual activity of control compounds were carried out at final compound concentrations of 1 μM in the assay buffer (50 mM Tris-HCl, 0.5 mM ethylenediaminetetraacetic acid (EDTA), pH 7.4). Stock solutions of the compounds were prepared in DMSO. To the 35 μL of solution of the compound in the buffer, 35 μL of 0.4 nM human iCP (South Bay Bio, San Jose, CA, USA) or human cCP (Boston Biochem, Inc., Cambridge, MA, USA) was added. For assays evaluating the activity of β2c and β2i, the buffer was modified by adding the proteasomal activator PA28β (Boston Biochem, Inc., Cambridge, MA, USA) at a final concentration of 6 nM. […] The substrates used were acetyl-Nle-Pro-Nle-Asp-7-amino-4-methylcoumarin (Ac-nLPnLD-AMC, Bachem, Bubendorf, Switzerland) for β1c, acetyl-Pro-Ala-Leu-7-amino-4-methylcoumarin (Ac-PAL-AMC, Boston Biochem, Inc., Cambridge, MA, USA) for β1i, acetyl-Arg-Leu-Arg-7-amino-4-methylcoumarin (Ac-RLR-AMC, Bachem, Bubendorf, Switzerland) for β2c and β2i, acetyl-Trp-Leu-Ala-7-amino-4-methylcoumarin (Ac-WLA-AMC, Bachem, Bubendorf, Switzerland) for β5c, and acetyl-Ala-Asn-Trp-7-amino-4-methylcoumarin (Ac-ANW-AMC, Bachem, Bubendorf, Switzerland) for β5i. Progress of the reaction was measured using a BioTek Synergy HT microplate reader, monitoring fluorescence at 460 nm (excitation at 360 nm) for 60 min at 37 °C. The initial linear ranges were used to calculate the reaction velocity and determine the residual activity.
as §1
Description for β1i subunit of human iCP: as §2, §1
Description for β2c subunit of human cCP: Stock solutions of the compounds were prepared in DMSO. To the 35 μL of solution of the compound in the buffer, 35 μL of 0.4 nM human iCP (South Bay Bio, San Jose, CA, USA) or human cCP (Boston Biochem, Inc., Cambridge, MA, USA) was added. For assays evaluating the activity of β2c and β2i, the buffer was modified by adding the proteasomal activator PA28β (Boston Biochem, Inc., Cambridge, MA, USA) at a final concentration of 6 nM. […] The substrates used were acetyl-Nle-Pro-Nle-Asp-7-amino-4-methylcoumarin (Ac-nLPnLD-AMC, Bachem, Bubendorf, Switzerland) for β1c, acetyl-Pro-Ala-Leu-7-amino-4-methylcoumarin (Ac-PAL-AMC, Boston Biochem, Inc., Cambridge, MA, USA) for β1i, acetyl-Arg-Leu-Arg-7-amino-4-methylcoumarin (Ac-RLR-AMC, Bachem, Bubendorf, Switzerland) for β2c and β2i, acetyl-Trp-Leu-Ala-7-amino-4-methylcoumarin (Ac-WLA-AMC, Bachem, Bubendorf, Switzerland) for β5c, and acetyl-Ala-Asn-Trp-7-amino-4-methylcoumarin (Ac-ANW-AMC, Bachem, Bubendorf, Switzerland) for β5i. Progress of the reaction was measured using a BioTek Synergy HT microplate reader, monitoring fluorescence at 460 nm (excitation at 360 nm) for 60 min at 37 °C. The initial linear ranges were used to calculate the reaction velocity and determine the residual activity.
as §1
Description for β2i subunit of human iCP: as §2, §1
Description for β5c subunit of human cCP: as §2, §1
Description for β5i subunit of human iCP: as §2, §1

By IC50 is commonly meant the concentration at which inhibition is half-maximal. As for `O=C(N[C@@H](Cc1coc2ccccc12)B(O)O)[C@@H]1C[C@H]2CC[C@@H]1O2` [M3258], the IC50 against β1i subunit of human iCP (own assay) was above 1000 nM; against β2c subunit of human cCP (own assay), above 1000 nM; in the series on β1i, above 30000 nM; in the series on β1c it was above 30000 nM; with β5c, 2520 nM; against β5c subunit of human cCP (own assay), 1230 ± 90 nM. Also, the IC50 in the series on β2c is above 30000 nM; against β1c subunit of human cCP (own assay), above 1000 nM; against β5i subunit of human iCP (own assay), 7.4 ± 1 nM; in the series on MM.1S, 367 nM; with β5i, 4.1 nM; against β2i subunit of human iCP, above 1000 nM. Further, in the series with β2i, the IC50 is above 30000 nM. Further, the viability at 72 h, […] in the series “Cytotoxicity MTS assay” was determined as 87%.
Take `O=C(N[C@@H](Cc1ccccc1)C(=O)N[C@H](B(O)O)c1ccc(-c2ccccc2)cc1)c1cnccn1` [5h, ((R)-[1,1′-Biphenyl]-4-yl((S)-3-phenyl-2-(pyrazine-2-carboxamido)propanamido)methyl)boronic Acid]: the IC50 on β1i subunit of human iCP (setting [3]) was 270 nM; on β5c subunit of human cCP (setting [4]) it was 12 nM; against β1c subunit of human cCP (setting [4]), 1310 nM; at β1c subunit of human cCP (own assay) it was above 1000 nM; on β5i subunit of human iCP (setting [3]) it was 24 nM; on β2i subunit of human iCP, 260 nM. In addition, on β2c subunit of human cCP (setting [4]), the “IC50 β2c” value was “no detectable inhibition”. Moreover, the solubility entry in series [1] was “limited solubility”. Besides, the “IC50 for both β5 subunits, fold better than IC50 for β1i” value in [2] is given as 10–20 fold.
For `O=C(N[C@@H](Cc1ccccc1)C(=O)N[C@H](B(O)O)c1ccc(Cl)cc1)c1cnccn1` [5d, ((R)-(4-Chlorophenyl)((S)-3-phenyl-2-(pyrazine-2-carboxamido)propanamido)methyl)boronic Acid], the IC50 against β1i subunit of human iCP (setting [3]) came out at 17 nM; against β2c subunit of human cCP (setting [4]) it was 1850 nM; at β5c subunit of human cCP (setting [4]), 114 nM; on β1c subunit of human cCP (setting [4]), 897 nM; on β5i subunit of human iCP (setting [3]) it was 3 nM; against β2i subunit of human iCP, 74500 nM. For the same compound, the “IC50 for β1i, fold lower than for β1c” value against β1i subunit of human iCP (β1i vs β1c) is given as 50 fold. The solubility result in [1] is given as “limited solubility”. Further, on β5i subunit of human iCP (β5i vs β5c), the “IC50 for β5i, fold lower than for β5c” value was 30 fold.
